Reference: patent US20100041642A1, “UREA INHIBITORS OF MAP KINASES” (LOCUS PHARMACEUTICALS, INC., priority 2008, published 2010)

The molecules below were run against p38 (Homo sapiens, UniProt Q16539) (assay: Protein Kinase Assay (33P incorporation from γ-[33P]ATP into GST-ATF-2)). Settings: 2 nM p38, preincubated 20 min at 30° C.; 10 uM cold ATP, 2 uM GST-ATF2, 70 min; read-out: ACT. (Activity), IC50 category in Protein Kinase Assay.
Chain of p38 (Q16539 whole entry): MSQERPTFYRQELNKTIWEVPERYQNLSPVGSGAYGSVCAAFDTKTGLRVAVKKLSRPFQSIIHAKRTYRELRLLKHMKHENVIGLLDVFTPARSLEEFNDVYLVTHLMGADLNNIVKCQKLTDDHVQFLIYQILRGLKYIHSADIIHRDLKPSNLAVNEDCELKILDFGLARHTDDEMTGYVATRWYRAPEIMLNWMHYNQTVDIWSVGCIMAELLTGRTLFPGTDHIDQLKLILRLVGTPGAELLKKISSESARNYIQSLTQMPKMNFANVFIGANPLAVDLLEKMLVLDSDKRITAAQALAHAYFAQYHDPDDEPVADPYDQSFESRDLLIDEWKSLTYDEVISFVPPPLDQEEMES
Assay type: biochemical
How it was run: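 Compounds preincubated 20 min at 30 °C with 2 nM p38; reaction started with 2 uM GST-ATF-2 (aa 19-96) and 10 uM ATP plus γ-[33P]ATP, pH 7.5, 70 min at 30 °C, 2% DMSO. Phosphoric acid stop; 33P-labelled substrate captured on phosphocellulose and counted by scintillation.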
For `Cc1ccc(NC(=O)Nc2cn(C(C)(C)C)nc2C(=O)N2CCN(C)C(=O)C2(C)C)cc1-c1ccc(CN2CCOCC2)cn1` [1-(1-tert-butyl-3-(2,2,4-trimethyl-3-oxopiperazine-1-carbonyl)-1H-pyrazol-4-yl)-3-(4-methyl-3-(5-(morpholinomethyl)pyridin-2-yl)phenyl)urea], the IC50 was < 100 nM.
With `Cc1ccc(NC(=O)Nc2sc(C(C)(C)C)cc2C(=O)N2CCNC(=O)C2(C)C)cc1-c1ccc(OCCCN(C)C)nc1` [1-(5-tert-butyl-3-(2,2-dimethyl-3-oxopiperazine-1-carbonyl)thiophen-2-yl)-3-(3-(6-(3-(dimethylamino)propoxy)pyridin-3-yl)-4-methylphenyl)urea] the IC50 was < 100 nM.
For `CCc1ccc(-c2cc(NC(=O)Nc3sc(C(C)(C)C)cc3C(=O)N3CCNC(=O)C3(C)C)ccc2C)nc1` [1-(5-tert-butyl-3-(2,2-dimethyl-3-oxopiperazine-1-carbonyl)thiophen-2-yl)-3-(3-(5-ethylpyridin-2-yl)-4-methylphenyl)urea], the IC50 was < 100 nM.
For `COc1ccc(NC(=O)Nc2sc(C(C)(C)C)cc2C(=O)N2CCNC(=O)C2(C)C)cc1-c1ccncc1` [1-(5-tert-butyl-3-(2,2-dimethyl-3-oxopiperazine-1-carbonyl)thiophen-2-yl)-3-(4-methoxy-3-(pyridin-4-yl)phenyl)urea], the IC50 was < 100 nM.
For `Cc1ccc(NC(=O)Nc2cn(C(C)(C)C)nc2C(=O)N2CCNC(=O)C2(C)C)cc1-c1ccc(C(C)C)nc1` [1-(1-tert-butyl-3-(2,2-dimethyl-3-oxopiperazine-1-carbonyl)-1H-pyrazol-4-yl)-3-(3-(6-isopropylpyridin-3-yl)-4-methylphenyl)urea], the IC50 was < 100 nM.
With `Cc1ccc(NC(=O)Nc2sc(C(C)(C)C)cc2C(=O)N2CCNC(=O)C2(C)C)cc1-c1ccc(OCCN2CCOCC2)nc1` [1-(5-tert-butyl-3-(2,2-dimethyl-3-oxopiperazine-1-carbonyl)thiophen-2-yl)-3-(4-methyl-3-(6-(2-morpholinoethoxy)pyridin-3-yl)phenyl)urea] the IC50 was < 100 nM.
For `Cc1ccc(NC(=O)Nc2sc(C(C)(C)C)cc2C(=O)N2CCNC(=O)C2(C)C)cc1-c1ccc(N2CCN(C)CC2)cn1` [1-(5-tert-butyl-3-(2,2-dimethyl-3-oxopiperazine-1-carbonyl)thiophen-2-yl)-3-(4-methyl-3-(5-(4-methylpiperazin-1-yl)pyridin-2-yl)phenyl)urea], the IC50 was < 100 nM.
`Cc1nnc(-c2ccc(-c3cc(NC(=O)Nc4cc(C(C)(C)C)sc4C(=O)N4CCN(C)C(=O)C4(C)C)ccc3C)cn2)o1` was tested, and the IC50 was < 100 nM.
`Cc1ccc(NC(=O)Nc2sc(C(C)(C)C)cc2C(=O)N2CCNC(=O)C2(C)C)cc1C#CCN1CCN(C)CC1` [1-(5-tert-butyl-3-(2,2-dimethyl-3-oxopiperazine-1-carbonyl)thiophen-2-yl)-3-(4-methyl-3-(3-(4-methylpiperazin-1-yl)prop-1-ynyl)phenyl)urea] was tested, and the IC50 was < 100 nM.
`COc1ccc(-c2cc(NC(=O)Nc3sc(C(C)(C)C)cc3C(=O)N3CCNC(=O)C3(C)C)cc(F)c2C)cn1` [1-(5-tert-butyl-3-(2,2-dimethyl-3-oxopiperazine-1-carbonyl)thiophen-2-yl)-3-(3-fluoro-5-(6-methoxypyridin-3-yl)-4-methylphenyl)urea] was tested, and the IC50 was < 100 nM.
With `Cc1ccc(NC(=O)Nc2sc(C(C)(C)C)nc2C(=O)N2CCN(C)C(=O)C2(C)C)cc1-c1ccc(CN2CCOCC2)nc1` [1-(2-tert-butyl-4-(2,2,4-trimethyl-3-oxopiperazine-1-carbonyl)thiazol-5-yl)-3-(4-methyl-3-(6-(morpholinomethyl)pyridin-3-yl)phenyl)urea] the IC50 was < 100 nM.
`CC(C)(C)c1cc(C(=O)N2CCNC(=O)C2(C)C)c(NC(=O)Nc2cccc(-c3ccc(OCCN4CCOCC4)nc3)c2)s1` [1-(5-tert-butyl-3-(2,2-dimethyl-3-oxopiperazine-1-carbonyl)thiophen-2-yl)-3-(3-(6-(2-morpholinoethoxy)pyridin-3-yl)phenyl)urea] was tested, and the IC50 was < 100 nM.
For `COc1ccc(-c2cc(NC(=O)Nc3sc(C(C)(C)C)cc3C(=O)N3CCNC(=O)C3(C)C)ccc2C)nc1` [1-(5-tert-butyl-3-(2,2-dimethyl-3-oxopiperazine-1-carbonyl)thiophen-2-yl)-3-(3-(5-methoxypyridin-2-yl)-4-methylphenyl)urea], the IC50 was < 100 nM.
`CN(C)CCCOc1ccc(-c2cccc(NC(=O)Nc3sc(C(C)(C)C)cc3C(=O)N3CCNC(=O)C3(C)C)c2)cn1` [1-(5-tert-butyl-3-(2,2-dimethyl-3-oxopiperazine-1-carbonyl)thiophen-2-yl)-3-(3-(6-(3-(dimethylamino)propoxy)pyridin-3-yl)phenyl)urea] was tested, and the IC50 was < 100 nM.
With `CC(C)(C)c1cc(C(=O)N2CCNC(=O)C2(C)C)c(NC(=O)Nc2cccc(N3CCOCC3)c2)s1` [1-(5-tert-butyl-3-(2,2-dimethyl-3-oxopiperazine-1-carbonyl)thiophen-2-yl)-3-(3-morpholinophenyl)urea] the IC50 was < 10000 nM.
`Cc1ccc(NC(=O)Nc2cc(C(C)(C)C)oc2C(=O)N2CCN(C)C(=O)C2(C)C)cc1-c1ccc(CN2CCOCC2)cn1` [1-(5-tert-butyl-2-(2,2,4-trimethyl-3-oxopiperazine-1-carbonyl)furan-3-yl)-3-(4-methyl-3-(5-(morpholinomethyl)pyridin-2-yl)phenyl)urea] was tested, and the IC50 was < 100 nM.
With `CCc1ccc(-c2cc(NC(=O)Nc3cn(C(C)(C)C)nc3C(=O)N3CCN(C)C(=O)C3(C)C)ccc2C)cn1` [1-(1-tert-butyl-3-(2,2,4-trimethyl-3-oxopiperazine-1-carbonyl)-1H-pyrazol-4-yl)-3-(3-(6-ethylpyridin-3-yl)-4-methylphenyl)urea] the IC50 was < 100 nM.
For `Cc1nnc(-c2ccc(-c3cc(NC(=O)Nc4sc(C(C)(C)C)cc4C(=O)N4CCN(C)C(=O)C4(C)C)ccc3C)cn2)o1` [1-(5-tert-butyl-3-(2,2,4-trimethyl-3-oxopiperazine-1-carbonyl)thiophen-2-yl)-3-(4-methyl-3-(6-(5-methyl-1,3,4-oxadiazol-2-yl)pyridin-3-yl)phenyl)urea], the IC50 was < 100 nM.
For `Cc1ccc(NC(=O)Nc2sc3c(c2C(=O)N2CCN(C)C(=O)C2(C)C)CCOC3)cc1-c1ccc(CN2CCOCC2)nc1` [1-(4-methyl-3-(6-(morpholinomethyl)pyridin-3-yl)phenyl)-3-(3-(2,2,4-trimethyl-3-oxopiperazine-1-carbonyl)-5,7-dihydro-4H-thieno[2,3-c]pyran-2-yl)urea], the IC50 was < 1000 nM.
With `Cc1ccc(NC(=O)Nc2cn(C(C)(C)C)nc2C(=O)N2CCNC(=O)C2(C)C)cc1-c1ccc(CN2CCOCC2)nc1` [1-(1-tert-butyl-3-(2,2-dimethyl-3-oxopiperazine-1-carbonyl)-1H-pyrazol-4-yl)-3-(4-methyl-3-(6-(morpholinomethyl)pyridin-3-yl)phenyl)urea] the IC50 was < 100 nM.
For `CCN(CC)Cc1ccc(-c2cc(NC(=O)Nc3sc(C(C)(C)C)cc3C(=O)N3CCN(C)C(=O)C3(C)C)ccc2C)cn1` [1-(5-tert-butyl-3-(2,2,4-trimethyl-3-oxopiperazine-1-carbonyl)thiophen-2-yl)-3-(3-(6-((diethylamino)methyl)pyridin-3-yl)-4-methylphenyl)urea], the IC50 was < 100 nM.
For `CN1CCN(CCCOc2ccc(-c3cccc(NC(=O)Nc4sc(C(C)(C)C)cc4C(=O)N4CCNC(=O)C4(C)C)c3)cn2)CC1` [1-(5-tert-butyl-3-(2,2-dimethyl-3-oxopiperazine-1-carbonyl)thiophen-2-yl)-3-(3-(6-(3-(4-methylpiperazin-1-yl)propoxy)pyridin-3-yl)phenyl)urea], the IC50 was < 100 nM.
With `COc1ccc(-c2cc(NC(=O)Nc3sc(C(C)(C)C)cc3C(=O)N3CCNC(=O)C3(C)C)ccc2C)cn1` [1-(5-tert-butyl-3-(2,2-dimethyl-3-oxopiperazine-1-carbonyl)thiophen-2-yl)-3-(3-(6-methoxypyridin-3-yl)-4-methylphenyl)urea] the IC50 was < 100 nM.
In the case of `Cc1ccc(NC(=O)Nc2sc(C(C)(C)C)cc2C(=O)N2CCNC(=O)C2(C)C)cc1-c1ccc(CN2CCOCC2)nc1` [1-(5-tert-butyl-3-(2,2-dimethyl-3-oxopiperazine-1-carbonyl)thiophen-2-yl)-3-(4-methyl-3-(6-(morpholinomethyl)pyridin-3-yl)phenyl)urea], the IC50 is reported as < 100 nM.
`CCc1ccc(-c2cc(NC(=O)Nc3cn(C(C)(C)C)nc3C(=O)N3CCN(C)C(=O)C3(C)C)cc(F)c2C)cn1` [1-(1-tert-butyl-3-(2,2,4-trimethyl-3-oxopiperazine-1-carbonyl)-1H-pyrazol-4-yl)-3-(3-(6-ethylpyridin-3-yl)-5-fluoro-4-methylphenyl)urea] was tested, and the IC50 was < 100 nM.
